From ChEMBL document CHEMBL5608248, “Exploring the Therapeutic Potential of Entheogens in Postoperative Cognitive Decline and Psychological Resilience” (ACS Med Chem Lett, 2024)

Molecular target: 5-hydroxytryptamine receptor 2A (Homo sapiens) (UniProt P28223)
Experiment: Agonist activity at 5-HT2A (unknown origin) expressed in HEK293 cells assessed as increase in calcium influx by measuring maximal efficacy incubated for 50 mins by Fluo-4 dye based FLIPR assay relative to control
Assay type: functional, cell-based
Conditions: filed as agonist

5-hydroxytryptamine receptor 2A (Homo sapiens), sequence (P28223 whole entry): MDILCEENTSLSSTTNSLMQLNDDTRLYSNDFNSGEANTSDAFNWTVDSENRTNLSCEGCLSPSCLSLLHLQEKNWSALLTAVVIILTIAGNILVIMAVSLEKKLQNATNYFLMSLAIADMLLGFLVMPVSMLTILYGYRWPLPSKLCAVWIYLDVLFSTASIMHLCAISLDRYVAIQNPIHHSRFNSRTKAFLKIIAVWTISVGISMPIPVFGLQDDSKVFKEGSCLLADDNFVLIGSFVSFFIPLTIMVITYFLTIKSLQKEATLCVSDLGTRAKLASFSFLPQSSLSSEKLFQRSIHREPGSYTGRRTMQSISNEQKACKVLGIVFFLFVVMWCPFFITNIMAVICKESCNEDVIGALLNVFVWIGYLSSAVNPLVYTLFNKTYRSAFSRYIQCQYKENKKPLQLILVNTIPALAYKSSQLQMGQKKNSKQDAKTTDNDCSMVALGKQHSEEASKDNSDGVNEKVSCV

| SMILES | Emax [%] |
| --- | --- |
| CCN(C)CCc1cccc2ccc(OC)cc12 | 63 |
| COc1ccc2cccc(CCN(C)C)c2c1 | 79 |
| CN(CCc1cccc2cccc(O)c12)C1CC1 | 64 |
| CC(C)N(C)CCc1cccc2cccc(O)c12 | 79 |
| CCN(C)CCc1cccc2cccc(O)c12 | 68 |
| COc1cccc(CNCCc2cccc3ccc(OC)cc23)c1 | 84 |
| CN(C)CCc1cccc2cccc(O)c12 | 73 |
